Measured values as given in patent publication US20240117005A1, “NOVEL BICYCLIC PEPTIDES” (THE COUNCIL OF THE QUEENSLAND INSTITUTE OF MEDICAL RESEARCH, priority 2021, published 2024).
Entries after “also recorded” stand apart in the source; their conditions may differ. No end group written: not given here. *: point of attachment. Myristyl = CCCCCCCCCCCCCC*

Test system: CSV, ABCB5, EGFR, FOXQ1, E-Cadherin in MDA-MB-231 cells
Assay: High resolution digital pathology of mesenchymal/epithelial markers, MDA-MB-231
Type: cell-based, human
Method: To examine the signature of CD8, CSV, EGFR, ABCB5, FOXQ1, commercial PD-L1-28-8, nuclear PD-L1, cytoplasmic PDL1 in MDA-MB-231 TNBC cells/TNBC brain cancer clone cells (untreated or treated with bicyclic inhibitors targeting nuclear PD-L1-PTM1). MDA-MB-231/MDA-MB-231-Br cells were permeabilised by incubating with 0.5% Triton X-100 for 15 min, blocked with 1% BSA in PBS and were probed with either CSV (Mouse host), CD8 (mouse host), EGFR (Rabbit host), ABCB5 (Goat Host), ALDH1A (Rabbit Host), NODAL (Goat Host), nuclear PDL1 (rabbit host), cytoplasmic PD-L1 (rabbit host) visualized with a donkey anti-rabbit AF 488, anti-mouse AF 568, donkey anti-goat 647. Cover slips were mounted on glass microscope slides with ProLong Glass Antifade reagent (Life Technologies). Protein targets were localised by digital pathology laser scanning microscopy. Single 0.5 μm sections were obtained using a ASI Digital pathology microscope using 100× oil immersion lens running ASI software. The final image was obtained by averaging four sequential images of the same section. Digital images were analyzed using automated ASI software (Applied Spectral Imaging, Carlsbad, CA) to determine the distribution and intensities automatically with automatic thresholding and background correction of the average nuclear fluorescence intensity (NFI), allowing for the specific targeting of expression of proteins of interest. Digital images were also analysed using ImageJ software (ImageJ, NIH, Bethesda, MD, USA) to determine the total cell fluorescence or cell surface only fluorescence for non-permeabilised cells. Digital images were analysed using ImageJ software (ImageJ, NIH, Bethesda, MD, USA) to determine either the Total Nuclear Fluorescent Intensity (TNFI), the Total Cytoplasmic Fluorescent Intensity (TCFI). ImageJ software with automatic thresholding and manual selection of regions of interest (ROIs) specific for cell nuclei was used to calculate the Pearson's co-efficient correlation (PCC) for each pair of antibodies. PCC values range from: −1=inverse of co-localisation, 0=no co-localisation, +1=perfect co-localisation. The Mann-Whitney nonparametric test (GraphPad Prism, GraphPad Software, San Diego, CA) was used to determine significant differences between datasets.
All breast cancer cell lines used were sourced from ATCC. MDA-MB-231 or MDB-MB-231-Br cell lines were maintained and cultured in DMEM (Invitrogen) supplemented with 10% FBS, 2 mM L-glutamine, and 1% PSN. […]
MDA-MB-231 were permeabilized and treated with either vehicle control or, DL-2 (current stock), or linear PDL1 (PDL1-L1). […] Significant differences are calculated as one-way ANOVA Kruskal-Wallis test comparison to vehicle control. […]

Compound | expression of the epithelial marker E-Cadherin (MDA-MB-231) | expression of mesenchymal marker CSV (CFI) (MDA-MB-231, vs vehicle control) | mesenchymal stem-like resistant protein markers (CSV, ABCB5, EGFR, FOXQ1) (MDA-MB-231, vs vehicle control) | expression of mesenchymal marker CSV (CFI) (MDA-MB-231, vs vehicle control, listed as linear PDL1 peptide)
CCCCCCCCCCCCCC(=O)NC(C)C(=O)NC1CSCc2cc3cc(c2)CSC[C@H](NC(=O)[C@H](Cc2ccccc2)NC(=O)[C@H](C(C)CC)NC(=O)[C@H](Cc2ccccc2)NC(=O)[C@H]([C@@H](C)O)NC(=O)C(CC(C)C)NC1=O)C(=O)N[C@@H](CCCNC(C)=N)C(=O)N[C@@H](CC(C)C)C(=O)N[C@@H](CCCNC(=N)N)C(=O)N[C@@H](CCCCN)C(=O)NCC(=O)N[C@@H](CCCNC(=N)N)C(=O)NC(C(=O)N[C@@H](CCSC)C(=O)NC(CCSC)C(=O)N[C@@H](CC(=O)O)C(=O)NC(C(=O)N[C@@H](CCCCN)C(=O)NC(CCCCN)C(=O)O)C(C)C)CSC3 (mixture of isomers) [DL-2] | able to induce expression | inhibit | significantly inhibit | –
LTFIFRLRKGRMMDVKK (Myristyl-LTFIFRLRKGRMMDVKK) [PDL1-L1, Myristyl- linear peptide, prototype] | – | – | – | reduce expression of CSV with far less significance; also recorded: able to reduce expression of CSV
